Experimental data as given in patent US5464616A, “6β-substituted penicillanic acids as beta-lactamase inhibitors” (Synphar Laboratories, Ind., priority 1994, dated 1995).
pIC50: −log10 of the molar value.

What was measured:
E. aerogenes S95 = test: MIC of cephalothin alone and in combination with inhibitor, E. aerogenes S95 (microbroth dilution); format: cell-based; details: Klebsiella aerogenes, cephalothin alone, MHB, 5 × 10^5 cfu/ml, 16 h/35° C.
Experimental: (§1) MIC values of cephalothin in combination with
(§2) β-lactamase inhibitors Ia and Ic.
(§3) Microbroth Dilution Method, MHB; Inoculum, 5 × 10^5 cfu/ml;
(§4) Incubation, 16 h/35° C.;
(§5) *Concentration of inhibitor = 5 mg/ml (fixed).

C. freundii S40 = test: MIC of cephalothin alone and in combination with inhibitor, C. freundii S40 (microbroth dilution); format: cell-based; details: Citrobacter freundii, cephalothin alone, MHB, 5 × 10^5 cfu/ml, 16 h/35° C.
Experimental: as §1, §2, §3, §4, §5

[1] = target: T1, cephalosporinase, which was isolated from Enterobacter cloacae (Enterobacter cloacae, UniProt P05364); test: inhibition of representative cephalosporinase isolated from Enterobacter cloacae; format: biochemical; details: read-out: IC50 against representative cephalosporinase
T1 construct: which was isolated from Enterobacter cloacae; endogenous in cells; host or cells: Enterobacter cloacae
Text: […]. Because of such differences in IC50 value against different types of β-lactamases, these inhibitors are regarded as selective cephalosporinase-inhibitors at the low concentration.

Gram-negative bacteria = test: whole cell bacteria: antibacterial activity of the inhibitors alone and synergy with cephalothin; format: cell-based; details: for synergistic activity against Gram-negative bacteria: in combination with cephalothin, whole cell bacteria; for antibacterial activity of the inhibitors themselves: inhibitor alone
[2] = test system: class C cephalosporinases; details: chromosomally encoded inducible cephalosporinases; cited from earlier work
bacteria = details: in combination with amoxycillin, ampicillin, piperacillin, respectively; cited from earlier work

T1 sequence (P05364 21-381): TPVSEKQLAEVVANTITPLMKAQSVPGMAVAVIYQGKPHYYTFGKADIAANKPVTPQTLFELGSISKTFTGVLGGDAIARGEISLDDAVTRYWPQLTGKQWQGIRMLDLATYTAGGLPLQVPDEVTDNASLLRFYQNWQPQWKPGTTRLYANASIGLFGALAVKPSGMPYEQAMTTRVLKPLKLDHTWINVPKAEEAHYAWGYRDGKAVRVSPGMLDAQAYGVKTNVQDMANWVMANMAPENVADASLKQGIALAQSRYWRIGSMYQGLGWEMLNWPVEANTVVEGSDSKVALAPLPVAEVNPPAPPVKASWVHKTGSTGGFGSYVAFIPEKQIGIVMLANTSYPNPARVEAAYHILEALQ

| pIC50 [1] | Compound | protection of antibiotics from class C cephalosporinases [2] | enhancement of effectiveness of conventional antibiotics (bacteria) | further results |
| --- | --- | --- | --- | --- |
| – | CC(=O)OCC1=C(C(=O)O)N2C(=O)[C@@H](NC(=O)Cc3cccs3)[C@H]2SC1 [Cephalothin] | – | – | MIC (E. aerogenes S95): > 256 µg/mL; MIC (C. freundii S40): 256 µg/mL |
| 8.15 | C=CCOC(=O)C(C(=O)N[C@@H]1C(=O)N2[C@@H]1SC(C)(C)[C@@H]2C(=O)O)=C1SC=CS1 [IIa, 6β-[(Allyloxycarbonyl)(1,3-dithiolen-2-ylidene)acetamido]-2,2-dimethylpenam-3-carboxylic acid] | – | – | – |
| 9.31 | CCOC(=O)C(C(=O)N[C@@H]1C(=O)N2[C@@H]1SC(C)(C)[C@@H]2C(=O)O)=C1SCCS1 [Ib, 6β-[(1,3-Dithiolan-2-ylidene)(ethoxycarbonyl)acetamido]-2,2-dimethylpenam-3-carboxylic acid] | – | – | – |
| 6.82 | CCOC(=O)C(C(=O)N[C@@H]1C(=O)N2[C@@H](C(=O)O)C(C)(C)S(=O)(=O)[C@H]12)=C1SCCS1 [Id, 6β-[(1,3-Dithiolan-2-ylidene)(ethoxycarbonyl)acetamido]-2,2-dimethylpenam-3-carboxylic acid 1,1-dioxide] | – | – | – |
| – | O=C(O)[C@H]1/C(=C/CO)O[C@@H]2CC(=O)N21 [clavulanic acid] | failed to protect the antibiotics | proved to enhance the effectiveness of conventional antibiotics against many bacteria | – |
| – | CC1(C)[C@H](C(=O)O)N2C(=O)C[C@H]2S1(=O)=O [sulbactam] | failed to protect the antibiotics | proved to enhance the effectiveness of conventional antibiotics against many bacteria | – |
| – | C[C@]1(Cn2ccnn2)[C@H](C(=O)O)N2C(=O)C[C@H]2S1(=O)=O [tazobactam] | failed to protect the antibiotics | proved to enhance the effectiveness of conventional antibiotics against many bacteria | – |

| Compound | pIC50 [1] | protection of antibiotics from class C cephalosporinases [2] | enhancement of effectiveness of conventional antibiotics (bacteria) | further results |
| --- | --- | --- | --- | --- |
| COC(=O)C(C(=O)N[C@@H]1C(=O)N2[C@@H]1SC(C)(C)[C@@H]2C(=O)O)=C1SCCS1 [Ia, 6β-[(1,3-Dithiolan-2-ylidene)(methoxycarbonyl)acetamido]-2,2-dimethylpenam-3-carboxylic acid] | 9.21 | – | – | synergistic activity against Gram-negative bacteria (Gram-negative bacteria): synergistic activity; antibacterial activity of the inhibitors themselves (Gram-negative bacteria): no antibacterial activity at the concentration up to 128 mg/ml |
| CC1(C)S[C@@H]2[C@H](NC(=O)C(C(=O)O)=C3SCCS3)C(=O)N2[C@H]1C(=O)O [Ic, Disodium 6β-[carboxylato(1,3-dithiolan-2-ylidene)acetamido]-2,2-dimethylpenam-3-carboxylate] | 8.04 | – | – | synergistic activity against Gram-negative bacteria (Gram-negative bacteria): synergistic activity; antibacterial activity of the inhibitors themselves (Gram-negative bacteria): no antibacterial activity at the concentration up to 128 mg/ml |
